Here are results for 3 compounds from patent US4220755A, “Fortimicin B derivatives and process for production thereof” (Abbott Laboratories, priority 1976, dated 1980).

The nature of data set [1]: Stability in alkaline aqueous conditions. It counts as physicochemical. The note with it: for Stability in aqueous solution: free base. The protocol:
The stability of 4-N-acylfortimicin B derivatives in aqueous alkaline conditions is poor. […] Therefore, purification of these compounds under basic conditions (for example, column chromatography with Amberlite CG-50, eluting with aqueous ammonia) is not practical.
In contrast with the instability of 4-N-acylfortimicin B derivatives, 4-N-alkylfortimicin B derivatives are so stable that no decomposition occurs even in aqueous barium hydroxide solution at reflux temperature for 18 hours. Therefore, in the case of 4-N-alkylfortimicin B, any substituents can be introduced at 4-N-position of fortimicin B, even though such substituents can not be introduced as the acyl type to such position due to the aforementioned instability.

The test system of the next data set is various microorganisms. The data set is described as follows: Antibacterial activity (general statements). The note with it: qualitative statement. The data set is classed as cell-based. The protocol:
(§1) Measurement was carried out according to the agar dilution method, using a medium of pH 8.0, or the Japanese Antibiotic Medicament Standard, using a medium of pH 7.2 Units are in mcg/ml.

Data set [2] has as its system Salmonella typhosa KY4278 ATCC9992. The data set is described as follows: MIC, agar dilution method, pH 8.0. The data set is classed as cell-based. The note with it: Salmonella enterica, pH 8, read-out: Minimum inhibition concentration (MIC), ST. Here is the method:
as §1
S.T.: Salmonella typhosa KY4278 ATCC9992
(In general: In agar dilution the substance is mixed into plates at graded concentrations.)

The test system of another data set is Eschericihia coli 3100. Put plainly: MIC, agar dilution method, pH 7.2. It counts as cell-based, Escherichia coli. Here is the method: as §1
Data set [3] deals with Escherichia coli R12 Z-338. Put plainly: MIC, agar dilution method, pH 7.2. It counts as cell-based. The protocol: as §1
(§2) **1: gentamicin, producing adenylsynthetase.

Data set [4] has as its system Escherichia coli 57R/W677. The data set is described as follows: MIC, agar dilution method, pH 7.2. It counts as cell-based. Conditions: 57R/W677, pH 7.2, read-out: Minimum inhibition concentration (MIC). Here is the method:
as §1, §2

The test system of data set [5] is Klebsiella pneumoniae 8045. Put plainly: ED50 in infected mice. The data set is classed as in vivo, ddY-strain mice. Conditions: 168 h, read-out: ED50 KP. The protocol: (§3) In this experiment, one group consisting of five ddY-strain mice is used. The microorganisms shown below are inoculated into each animal. One hour after the inoculation, test compounds dissolved in distilled water for injection are injected intraperitoneally to test animals by one shot. The test animals are observed one week after the injection, and the ED50 is calculated according to the method of Behrens-Karber.
*^1 KP means Klebsiella pneumoniae 8045. 1.3 × 10^5 cells
are inoculated into each mouse.

A further data set is described as follows: in vivo. Conditions: mouse, iv. Here is the method: In this experiment, one group consisting of five ddY-strain mice is used. Test compounds dissolved in 0.2 ml of distilled water for injection are injected intravenously into each animal in 10 seconds. The LD50 is calculated according to the method of Behrens-Karber.
The next data set concerns Escherichia coli Juhl. The data set is described as follows: ED50 in infected mice. The data set is classed as in vivo, ddY-strain mice. The note with it: ip, 168 h, read-out: ED50 EC. The protocol: as §3
*^2 EC means Escherichia coli Juhl. 2.1 × 10^4 cells are
inoculated into each mouse.

[6] abbreviates: Escherichia coli, pH 7.2, E. coli 3100, read-out: Minimum inhibition concentration (MIC).
[7] abbreviates: R12Z338, pH 7.2, E. coli R12 Z-338, 1**: gentamicin, producing adenylsynthetase, read-out: Minimum inhibition concentration (MIC).

Each structure is given as a SMILES string. Values after ≈ are worked out from the molar mass of the structure shown. Like-named read-outs stand apart in the source and are kept apart here.

Turning to `CO[C@H]1[C@@H](O)[C@H](N)[C@@H](O[C@H]2O[C@H]([C@H](C)N)CC[C@H]2N)[C@H](O)[C@@H]1N(C)C(=O)CNC(N)=O` [Compound 3, 4-N-hydantoylfortimicin B, reference compound], in [1], the “Stability under strongly alkaline conditions” value is “slightly unstable”. Also, the Antibacterial activity entry in the data set with various microorganisms is reported as “have antibacterial activity”. The MIC turned out to be 0.32 µg/mL (≈ 0.713 µM) in [2], 12.5 µg/mL (≈ 27.9 µM) in the data set with Eschericihia coli 3100 (setting [6]), 6.25 µg/mL (≈ 13.9 µM) in [3] (setting [7]) and 25 µg/mL (≈ 55.7 µM) in data set [4].

With `CO[C@H]1[C@@H](O)[C@H](N)[C@@H](O[C@H]2O[C@H]([C@H](C)N)CC[C@H]2N)[C@H](O)[C@@H]1N(C)C(=O)CN` [Compound 2, 4-N-glycylfortimicin B, reference compound], the “Stability in aqueous solution” value was “almost completely decomposed” in [1] (pH 10, 100° C., 4 hours) and “almost completely decomposed” in data set [1] (pH 10, room temperature, 2 weeks). Further, in [1], the “Stability under strongly alkaline conditions” value was “slightly unstable”. The Antibacterial activity result in the data set on various microorganisms is on record as “have antibacterial activity”. For the same compound, the median effective dose (ED50) in data set [5] (Klebsiella pneumoniae, 8045, ip) is 2.06 mg/kg; in the data set with Escherichia coli Juhl (Escherichia coli) it was 5.06 mg/kg. In addition, the MIC is 0.16 µg/mL (≈ 0.395 µM) in data set [2]; 6.25 µg/mL (≈ 15.4 µM) in the data set with Eschericihia coli 3100 (Escherichia coli, 3100, pH 7.2, read-out: Minimum inhibition concentration (MIC)); 12.5 µg/mL (≈ 30.8 µM) in data set [3] (R12Z338, pH 7.2, read-out: Minimum inhibition concentration (MIC)); 12.5 µg/mL (≈ 30.8 µM) in data set [4]. Moreover, the LD50 in the data set “in vivo” was 330 mg/kg.

In the case of `CO[C@H]1[C@@H](O)[C@H](N)[C@@H](O[C@H]2O[C@H]([C@H](C)N)CC[C@H]2N)[C@H](O)[C@@H]1N(C)C[C@@H](O)CCN` [Compound 27, 4-N-[(S)-4-amino-2-hydroxybutyl]fortimicin B], the ED50 in data set [5] (ip, mice, intraperitoneal one shot 1 hour after inoculation of Klebsiella pneumoniae 8045 (1.3 × 10^5 cells), sulfate, one week observation) worked out at 1.88 mg/kg; with Escherichia coli Juhl (mice, intraperitoneal one shot 1 hour after inoculation of Escherichia coli Juhl (2.1 × 10^4 cells), sulfate, one week observation), 2.81 mg/kg. For the same compound, the MIC in [2] amounted to 0.16 µg/mL (≈ 0.367 µM); with Eschericihia coli 3100 (setting [6]) it was 12.5 µg/mL (≈ 28.7 µM); in [3] (setting [7]) it was 12.5 µg/mL (≈ 28.7 µM); in data set [4], 12.5 µg/mL (≈ 28.7 µM). This compound gave an LD50 in “in vivo” of 135 mg/kg.

As usually defined, the ED50 is the dose at which the effect has come halfway, by size or by number of responders. For orientation: LD50 means the dose at which mortality reaches 50%. Low values mean a more toxic substance, high ones a less toxic substance.
